# Measurements taken from patent US9168212B2, “Composition for eyelash growth” (SK CHEMICALS CO., LTD., priority 2011, dated 2015).
# Tests used:
# eyelashes [1] = test: In vivo evaluation related to eyelash growth (two weeks local administration); parameters: species or system mouse
# Description: (§1) Analysis was conducted immediately after the eyelashes were collected. Using a high-performance microscope with computer-assisted eyelid thickness focus fixation and an image analysis software capable of measuring the number, thickness and length of eyelashes, the eyelashes were measured for the exact number, thickness and length thereof. Numeric data obtained by this method was averaged, and comparative analysis was conducted using prism statistical software.
# eyelashes [2] = test: Short-term in vivo evaluation related to eyelash growth (one week administration); parameters: species or system mouse
# Description: as §1
# [3] = female mouse, 2 μl applied to the eyelashes once a day for two weeks, n is 8 for each group
# [4] = female mouse, 2 μl applied to the eyelashes once a day for one week, n is 6 for each group
compound,measurement,setting,value
CCNC(=O)CCC/C=C\C[C@@H]1[C@@H](/C=C/[C@@H](O)CCc2ccccc2)[C@H](O)C[C@@H]1O [bimatoprost],"statistical significance of increase in number, thickness and length of eyelashes compared to the control group","eyelashes [1]; administered for two weeks, t-test",statistically significant increase in only two items of number and thickness of eyelashes
same,number of eyelashes,eyelashes [1]; [3],39.0 eyelashes
same,number of eyelashes having a length of 1000 μm or more,eyelashes [1]; [3],9.5 eyelashes
same,number of eyelashes having a thickness of 15 μm or more,eyelashes [1]; [3],9.5 eyelashes
same,number of eyelashes,eyelashes [2]; [4],37.8 eyelashes
same,number of eyelashes having a length of 1000 μm or more,eyelashes [2]; [4],12.3 eyelashes
same,number of eyelashes having a thickness of 15 μm or more,eyelashes [2]; [4],8.7 eyelashes
same,"statistical significance of increase in number, thickness and length of eyelashes compared to the control group","eyelashes [2]; one week administration, t-test",statistically significant increase in only one item of eyelash thickness
